Measurements reported in ChEMBL document CHEMBL1649189, “Avian Aspergillus fumigatus strains resistant to both itraconazole and voriconazole” (2009).
In brackets after ≈: the same amount, converted by molar mass.

Tests used:
Type in all cases: functional
Aspergillus fumigatus [1] = assay: Antifungal activity against Aspergillus fumigatus isolate by broth microdilution method
Aspergillus fumigatus [2] = assay: Antifungal activity against voriconalzole-resistant Aspergillus fumigatus isolate by broth microdilution method
Aspergillus fumigatus [3] = assay: Antifungal activity against itraconazole-resistant Aspergillus fumigatus isolate by broth microdilution method

SMILES	MIC50 (Aspergillus fumigatus [1]) [µg/mL]	MIC90 (Aspergillus fumigatus [1]) [µg/mL]	MIC (Aspergillus fumigatus [2]) [µg/mL]	MIC (Aspergillus fumigatus [3]) [µg/mL]
C[C@@H]1[C@H](O)[C@@H](C)/C=C/C=C/C=C/C=C/C=C/C=C/C=C/[C@H](O[C@@H]2O[C@H](C)[C@@H](O)[C@H](N)[C@@H]2O)C[C@@H]2O[C@](O)(C[C@@H](O)C[C@@H](O)[C@H](O)CC[C@@H](O)C[C@@H](O)CC(=O)O[C@H]1C)C[C@H](O)[C@H]2C(=O)O [AMPHOTERICIN B]	2 (≈ 2.16 µM)	2 (≈ 2.16 µM)		
CCC(C)n1ncn(-c2ccc(N3CCN(c4ccc(OCC5COC(Cn6cncn6)(c6ccc(Cl)cc6Cl)O5)cc4)CC3)cc2)c1=O (stereo not drawn) [ITRACONAZOLE]	0.5 (≈ 0.709 µM)	0.5 (≈ 0.709 µM)	> 16	
C[C@@H](c1ncncc1F)[C@](O)(Cn1cncn1)c1ccc(F)cc1F [VORICONAZOLE]	0.25 (≈ 0.716 µM)	0.5 (≈ 1.43 µM)		4 (≈ 11.5 µM)
